Laboratory results published in patent publication US12421260B2, “Neurokinin-1 antagonist” (SHANGHAI SHENGDI PHARMACEUTICAL CO., LTD, priority 2019, dated 2025).
In brackets after ≈: the same amount, converted by molar mass. Like-named read-outs stand apart in the source and are kept apart here.

Experiments:
[1] = Metabolism in plasma of mouse (Test Example 4); assay type: in vitro ADME; design: unit not given here
Description: (§1) 5 μL of the 16 μM working solution of the compound of Example 5 was added to 75 μL plasma at a final concentration of 1 μM. The samples were incubated in a 37° C. water bath for 0, 15, 30, 60, 90, 120 and 180 min. After completion of the incubation, 240 μL of internal standard containing acetonitrile was added into the samples which was then shaken on a shaker at 800 rpm for 10 min and centrifuged at 3700 rpm at 4° C. for 20 min. The supernatant was analyzed by LC-MS, and the injection volume was 2 μL.
(§2) The metabolism of the compounds of Example 1, Example 2 and Example 8 in the plasma of mouse, rat and human was determined by referring to the test method in Test Example 2.

[2] = In vivo pharmacokinetic test in rats (Test Example 5); conditions: plasma, rat, intravenous bolus 2 mg/kg
Description: Rats were used as the test animals. The plasma drug concentration at different time points after administration of the compounds of Example 1 and Example 2 by injection was determined using LC/MS/MS method. The in vivo pharmacokinetic of the compounds in rats was studied, and the pharmacokinetic characteristics were evaluated.
A certain amount of the compounds of Example 1 and Example 2 were weighed and prepared into a pH=4.0 solution by using 20 mmol/L sodium dihydrogen phosphate for later use.
The drug was administered by intravenous bolus injection with an injection time of about 5 min, administration dose of 2 mg/kg, administration concentration of 0.4 mg/ml and administration volume of 5 ml/kg.
(§3) Blood was collected from the orbital vein before administration and 5 min, 0.25 h, 0.5 h, 1 h, 2 h, 4 h, 6 h, 8 h, 10 h, 24 h and 48 h after administration. About 0.6 mL was collected for each sample which was subject to anticoagulation using heparin sodium and placed on ice immediately after collection. The blood samples were placed in labeled centrifuge tubes after collection, and plasma was separated by centrifugation (centrifugation conditions: centrifugal force 2200 g, centrifugation at 2-8° C. for 10 min).

[3] = Water solubility (Test Example 1); assay type: physicochemical; conditions: aqueous buffer, thermodynamic from solid
Description: 1.1. Preparation of Reagents
The 100 mL strength reagents were prepared as follows:
pH=3.0: phosphate buffer solution: 100 ml of 20 mmol/L NaH2PO4, 0.1M H3PO4, adjusting pH to 3.0.
pH=4.0: phosphate buffer solution: 100 ml of 20 mmol/L NaH2PO4, 0.1M H3PO4, adjusting pH to 4.0. […]
An appropriate amount of test compound was accurately weighed. The solution was added at a small amount each time for several times and stirred until the compound was dissolved, and the content of the compound in the solution was determined.

[4] = Chemical stability of the compounds (Test Example 1); assay type: physicochemical; conditions: purity loss after placing for 7 days; 4° C. and room temperature
Description: 2.1 Test of Stability of the Compounds
About 1 mg of sample was weighed into a vial, then the vial was placed in a vacuum bag and the bag was vacuumized. Then the bag was put into a container containing color-changing silica gel and sealed. Two parallel samples were prepared. Enough samples were prepared according to the sampling time point and placed at 4° C. and room temperature respectively.

[5] = Metabolism in plasma of rat (Test Example 4); assay type: in vitro ADME; design: unit not given here
Description: as §1, §2

[6] = Metabolism in human plasma (Test Example 4); assay type: in vitro ADME; design: plasma concentration of the compounds of the examples: unit not given here
Description: as §1, §2

[7] = Pharmacokinetic test in cynomolgus monkeys, Example 5 (Test Example 6); assay type: in vivo; conditions: for AUC(0-t) / Cmax / Tmax: cynomolgus monkey, iv 2 mg/kg Example 5
Description: Cynomolgus monkeys were used as the test animals. The plasma drug concentration at different time points after iv administration of the compound of Example 5 by injection was determined using LC/MS/MS method. The in vivo pharmacokinetic of the compound of the present invention in cynomolgus monkeys was studied, and the pharmacokinetic characteristics were evaluated.
A certain amount of the compound of Example 5 was weighed and prepared into a pH=4.0 solution by using 20 mmol/L sodium dihydrogen phosphate for later use.
The drug was administered by intravenous with injection time of about 30 min, administration dose of 2 mg/kg, administration concentration of 0.4 mg/ml and administration volume of 5 ml/kg.
as §3, with “the femoral” for “the orbital”, “0.6 ml of” for “0.6 mL”, “each sample,” for “each sample”
The content of the compound of Example 5 and rolapitant in plasma samples was determined by LC/MS/MS.

[8] = Plasma stability test, conversion in fresh human plasma (Test Example 2); assay type: in vitro ADME; conditions: for Compound of Example 5 concentration in plasma: human plasma, 37° C.
Description: The compound of Example 5 and the compound of formula I.
Human fresh plasma was donated by volunteers with informed consent.
1.3 Preparation of Solution of the Compound
A certain amount of the compound of Example 5 was weighed and DMSO was added to prepare a 30 mM stock solution. A certain volume of the stock solution was diluted with DMSO to prepare solution I at a concentration of 1600 μM. Then a certain volume of the 1600 μM solution I was diluted with 45% methanol to prepare working solution II at a concentration of 16 μM. The 30 mM stock solution and the 1600 μM solution […] for the compound of formula I were also prepared by the above method.
as §1
1.5 Preparation of Standard Curve
The previously 1600 μM solution I was diluted with acetonitrile to prepare the standard curve working solution with concentrations of 160, 400, 1600, 4000, 8000, 16000 and 32000 ng/mL. The concentration of QC working solution was 480, 1920 and 25600 ng/mL. 5 μL of the standard curve working solution and QC working solution were added to 75 μL plasma to obtain the standard curve samples with final concentrations of 10, 25, 100, 250, 500, 1000 and 2000 ng/mL and QC samples with final concentrations of 30, 120 and 1600 ng/mL. 240 μL of acetocyano containing the internal standard was then added into the samples quickly, which was then shaken in a shaker at 800 rpm for 10 min and centrifuged at 3700 rpm at 4° C. for 20 min. The supernatant was collected and analyzed by LC-MS, and the injection volume was 2 μL.
The standard curve of the compound of formula I and QC sample were prepared by the above method.

Red blood cells (RBC) = assay: Hemolytic effect (Test Example 8); assay type: cell-based, rabbits; conditions: rabbit red blood cell 2% suspension, PBS
Description: Red blood cells (RBC) were collected from the jugular vein or central ear artery of rabbits (10 ml of EDTA whole blood). The blood was put in a conical flask with glass beads and shaken for 10 minutes to remove fibrinogen, resulting in defibrinated blood. About 10 times the amount of sodium chloride solution was added to the defibrinated blood, which was then shaken well and centrifuged at 1500 rpm for 10 minutes. The supernatant was removed and the precipitated red blood cells were washed with sodium chloride injection for 3 times according to the above method, until the supernatant was observed colorless. The obtained red blood cells were prepared into a 2% (v/v) suspension with sodium chloride injection for later use.
The test samples (the compound of Example 5 and the compound of Example 19) were respectively dissolved in PBS (pH 7.4 or pH 5) and filtered to prepare 0.4 mg/ml, 0.8 mg/ml, 1.2 mg/ml, 1.6 mg/ml and 2 mg/ml solutions for later use.
A certain amount of test sample solution was added to the above […] for testing in the supernatant.
The sample should be further observed under a microscope, and if red blood cells can be seen as aggregated, then coagulation has occurred. The hemolytic effect of the compounds of the present disclosure was determined by using this method.

C[C@@H](OC[C@@]1(c2ccccc2)CC[C@]2(CCC(=O)N2)CN1C(=O)OCCCOP(=O)(O)O)c1cc(C(F)(F)F)cc(C(F)(F)F)c1 [Example 2]
plasma concentration of the compounds of the examples [1]: 91.17
AUC(0-t) ([2]; read-out: AUC0-t of the compound of the example): 41.6 ng·h/mL
AUC(0-inf) ([2]; read-out: AUC0-∞ of the compound of the example): 42.2 ng·h/mL
MRT inf ([2]; read-out: MRT 0-∞ of the compound of the example): 4.38 min
half-life ([2]; read-out: T1/2 of the compound of the example (converted)): 5.22 min
solubility ([3]; PH = 5): 9050 µg/mL (≈ 13.3 mM)
Chemical stability [4]: Good (purity reduced by <0.5% after placing for 7 days)
plasma concentration of the compounds of the examples [5]: 97.70
conversion into rolapitant (in words) [6]: basically no convertion into rolapitant in human plasma, or only a slight conversion
plasma concentration of the compounds of the examples [6]: 99.00

CC(C)[C@H](N)C(=O)OCOC(=O)N1C[C@@]2(CCC(=O)N2)CC[C@@]1(CO[C@H](C)c1cc(C(F)(F)F)cc(C(F)(F)F)c1)c1ccccc1 [Example 5]
in vivo transformation into rolapitant (in words) ([7]; cynomolgus monkeys, iv 2 mg/kg): most of the compound were rapidly transformed into the active metabolite rolapitant
AUC(0-t) ([7]; plasma, analyte Example 5, read-out: AUC0-t): 0.77 ± 0.29 ng·h/mL
Cmax ([7]; plasma, analyte Example 5, read-out: Cmax): 2.28 ± 0.39 ng/mL
Tmax ([7]; plasma, analyte Example 5, read-out: Tmax): 6.6 ± 7.2 min
solubility ([3]; phosphate buffer, PH = 4): > 10000 µg/mL
Compound of Example 5 concentration in plasma ([8]; 0 min, 1 μM start): 1 µM
Compound of Example 5 concentration in plasma ([8]; 15 min): 0.53 µM
Compound of Example 5 concentration in plasma ([8]; 30 min): 0.12 µM
Compound of Example 5 concentration in plasma ([8]; 60 min): 0.01 µM
Compound of Example 5 concentration in plasma ([8]; 90 min): 0.00 µM
Compound of Example 5 concentration in plasma ([8]; 120 min): 0.00 µM
Compound of Example 5 concentration in plasma ([8]; 180 min): 0.00 µM
Chemical stability [4]: Good (purity reduced by <0.5% after placing for 7 days)
concentration with hemolytic effect (Red blood cells (RBC)): ≥ 0.04 mg/mL

C[C@@H](OC[C@@]1(c2ccccc2)CC[C@]2(CCC(=O)N2C(=O)CCC(=O)O)CN1)c1cc(C(F)(F)F)cc(C(F)(F)F)c1 [Example 8]
plasma concentration of the compounds of the examples [1]: 61.67
solubility ([3]; PH = 5): 1370 µg/mL (≈ 2.28 mM)
Chemical stability [4]: Moderate (purity reduced by 0.5%~2.0% after placing for 7 days)
plasma concentration of the compounds of the examples [5]: 59.89
conversion rate into rolapitant [6]: ~46%
plasma concentration of the compounds of the examples [6]: 54.54

C[C@@H](OC[C@@]1(c2ccccc2)CC[C@]2(CCC(=O)N2)CN1C(=O)OCOP(=O)(O)O)c1cc(C(F)(F)F)cc(C(F)(F)F)c1 [Example 19]
concentration with no hemolytic effect (Red blood cells (RBC)): up to 2 mg/ml

(5S,8S)-8-[{(1R)-1-(3,5-bis-(trifluoromethyl)phenyl)-ethoxy}-methyl]-8-phenyl-1,7-diazaspiro[4.5]dec-2-one [Rolapitant, reference compound]
AUC(0-t) ([7]; analyte rolapitant): 4326.87 ± 1820.65 ng·h/mL
Cmax ([7]; analyte rolapitant): 315.25 ± 97.08 ng/mL
Tmax ([7]; analyte rolapitant): 8.4 ± 6 min
Compound of formula 1 concentration formed from Example 5 ([8]; human plasma incubated with 1 μM Example 5, 0 min): 0.00 µM
Compound of formula 1 concentration formed from Example 5 ([8]; human plasma incubated with 1 μM Example 5, 15 min): 0.78 µM
Compound of formula 1 concentration formed from Example 5 ([8]; human plasma incubated with 1 μM Example 5, 30 min): 1.18 µM
Compound of formula 1 concentration formed from Example 5 ([8]; human plasma incubated with 1 μM Example 5, 60 min): 1.22 µM
Compound of formula 1 concentration formed from Example 5 ([8]; human plasma incubated with 1 μM Example 5, 90 min): 1.31 µM
Compound of formula 1 concentration formed from Example 5 ([8]; human plasma incubated with 1 μM Example 5, 120 min): 1.28 µM
Compound of formula 1 concentration formed from Example 5 ([8]; human plasma incubated with 1 μM Example 5, 180 min): 1.02 µM
